The values that follow come from patent US20240002379A1, “ASYMMETRIC CONJUGATE COMPOUNDS” (Pheon Therapeutics Ltd., priority 2016, published 2024).

Read-outs that look alike come from different tables or passages of the source.

One experiment concerns PC3 (prostate) cell line. The experiment in a line: MTT cytotoxicity assay, PC3. Format: cell-based. Conditions: MTT assay, 72 hour incubation, read-out: Cytotoxicity PC3 (nM, 72 hour). As for the experimental part:
(§1) Tumor cell lines were maintained in RPMI1640 medium supplemented with 10% heat-inactivated fetal bovine serum, 2 mM L-glutamine and 1 mM sodium pyruvate. 1800 cells per well were seeded in a volume of 180 μl in a 96-well flat bottom polystyrene plate. The cells were allowed to adhere overnight at 37° C. in a CO2 incubator. Ligands were initially formulated in DMSO, and stocks stored at −80° C. They were then further formulated at lox concentration in RPMI1640 medium. 20 ul of diluted samples were added into each treatment well. On each plate, blank wells with no cells, and untreated wells containing cells, were included. Plates were then cultured at 37° C. in a CO2 incubator for 72 hrs. Cytotoxicity was evaluated using a tetrazolium salt-based assay, the MTT assay. After 72 hours, the supernatant was removed from each well and 200 μl of a sterile filtered 500 μg/ml MTT solution in water added to each well. The plates were then incubated at 37° C. in a CO2 incubator for 4 hrs. The supernatant was then removed and the formazan crystals formed solubilized by adding 150 μl of DMSO to each well. The plate was then read on a plate reader at 540 nm, and percentage cell survival calculated as follows: ((mean absorbance treated wells at concentration x−mean absorbance blank wells)[…](mean absorbance untreated wells at concentration x−mean absorbance blank wells))×100. Data were plotted as concentration in nM vs. % cell survival in Microsoft Excel, and IC50 values (concentration where cell survival is reduced by a half) were determined from the graph.

Experiment [1] concerns linear double-stranded HexARev DNA fragment. The experiment in a line: DNA cleavage assay, HexARev fragment. Type of experiment: biochemical. The following applies: ligand concentration 10 μM and 100 nM (FIG. 16). The procedure:
The ability of a further series of compounds 13, 42, 59, 99 and the PBD dimer Talirine to cross-link DNA was determined using an assay involving a linear double-stranded HexARev fragment (FIG. 15).
(§2) The ability of 13 and of a series of compounds to cleave double-stranded DNA was investigated using a modification of the previously established DNA footprinting assay (34). Following an overnight incubation of the ligand-DNA complexes, the mixture was mixed with strand separation buffer containing 10 mM EDTA, 10 mM NaOH, 0.1% bromophenol blue, 80% formamide and incubated at 100° C. for 3 min. The mixture was then immediately cooled on ice and run on an 8% denaturing gel. […] Using the GA marker, these additional bands were identified as cleavage products produced by 13 at certain A sites of the DNA fragment.
(§3) The preparation of the TyrT DNA fragment (FIG. 8) and HexARev DNA fragment (FIG. 15) have been previously described (34). Briefly, the sequence which had been cloned into the BamHI site of pUC18 was obtained by cutting with HindIII and EcoRI. Radiolabelled DNA fragments were prepared by filling in the 3′-end of the HindIII site with [α-^32P]dATP using Klenow DNA polymerase (exo-).
The radiolabelled DNA fragment was separated from the remainder of the plasmid DNA on a 6% non-denaturing polyacrylamide gel. The gel (20 cm long, 0.3 mm thick) was run at 400 V in 1×TBE running buffer for about 1-2 h, until the bromophenol blue had run most of the way down the gel. The glass plates were separated and the position of the labelled DNA fragment was established by short (1 min) exposure to an X-ray film. The relevant band was then cut from the gel and the radiolabelled DNA eluted by adding 300 μL 10 mM Tris-HCl, pH 7.5 containing 0.1 mM EDTA and gently agitating overnight at room temperature. The eluted DNA was finally precipitated with ethanol and re-suspended in a suitable volume of 10 mM Tris-HCl, pH 7.5 containing 0.1 mM EDTA buffer so as to give at least 10 counts per second/μL on a hand-held Geiger counter. With fresh plasmid and α-^32P-dATP this process typically generated about 150 μL of radiolabelled fragment DNA. The absolute concentration of the DNA is not important, and it is typically lower than 10 nM.
Compounds such as 13 were synthesised as described above and the PBD dimer Talirine was obtained from Aurum Pharmatech LLC. Stock solution was prepared by dissolving the ligands in DMSO to give a concentration of 10 mM. From this stock solution, working solutions of the desired concentration were prepared by diluting with 10 mM Tris-HCl, pH 7.5 containing 10 mM NaCl.
Radiolabelled DNA (1.5 μL) was mixed with 1.5 μL ligand solution of various concentrations (10 μM-10 nM) and incubated overnight at 37° C.
Labelled DNA (1.5 μL) was mixed with 20 μL sterile water and 5 μL of denaturing loading solution (80% formamide containing 10 mM EDTA, 10 mM NaOH, 0.01% bromophenol blue). The sample was then incubated at 100° C. for 20 min with the micro-centrifuge tube cap open to allow evaporation.
Loading solution (4.5 μL) was added to samples from Section 2.1. The digestion products were boiled for 3 min at 100° C. and quickly cooled on ice prior to electrophoresis. Separation was performed on an 8% denaturing polyacrylamide gel (40 cm long, 0.3 mm thick) at 1500V for about 2 h until the dye reached the bottom of the gel. […]

In experiment [2] the test system is FaDu (head and neck cancer) cell line. The experiment in a line: MTT cytotoxicity assay, FaDu. Type of experiment: cell-based. Conditions: Homo sapiens, MTT assay, 72 hour incubation. As for the experimental part: as §1
A general note: Tetrazolium dyes change colour on reduction, which living cells bring about.

For a further experiment, the system named is SW48 cell line (gastric). In words: MTT cytotoxicity assay, SW48. Format: cell-based. Conditions: Homo sapiens, SW48; MTT assay, 72 hour incubation; read-out: Cytotoxicity SW48 (72 hrs). An outline of the steps: (§4)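 Cells seeded at 1800/well in RPMI1640 + 10% FBS, adhered overnight, then exposed to compound 72 h at 37° C. Survival by MTT (500 μg/ml, 4 h), formazan in DMSO read at 540 nm, blank-corrected versus untreated wells; IC50 read from concentration–survival plot.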

The next experiment relates to TyrT DNA fragment. In words: DNA cleavage assay, TyrT fragment. Format: biochemical. As for the experimental part: as §2, §3
The radiolabelled DNA fragment was separated from the remainder of the plasmid DNA on a 6% non-denaturing polyacrylamide gel. The gel (20 cm long, 0.3 mm thick) was run at 400 V in 1×TBE running buffer for about 1-2 h, until the bromophenol blue had run most of the way down the gel. […]

The test system of experiment [3] is SW620 cell line (gastric). In words: MTT cytotoxicity assay, SW620. Conditions: Homo sapiens, SW-620; MTT assay, 72 hour incubation; read-out: Cytotoxicity SW620 (72 hours). Type of experiment: cell-based. An outline of the steps:
as §4

Consider `COc1cc2c(cc1OCc1cccc(CC(=O)N3C[C@@H](CCl)c4c3cc(O)c3ccccc43)c1)N=C[C@@H]1CCCCN1C2=O` [Compound 42, (S)-3-((3-(2-((S)-1-(Chloromethyl)-5-hydroxy-1,2-dihydro-3H-benzo[e]indol-3-yl)-2-oxoethyl)benzyl)oxy)-2-methoxy-7,8,9,10-tetrahydrobenzo[e]pyrido[1,2-a][1,4]diazepin-12(6aH)-one], for which the IC50 worked out at 0.03 nM in the experiment on PC3 (prostate) cell line and 0.01 nM in experiment [2] (read-out: IC50 value in FaDu). In addition, the “cleavage of HexARev DNA fragment” value in experiment [1] was “cleave DNA”.

Consider `COc1cc2c(cc1OCCCC(=O)N1C[C@@H](CCl)c3c1cc(O)c1ccccc31)N=C[C@@H]1CCCCN1C2=O` [Compound 13, (S)-3-(4-((S)-1-(Chloromethyl)-5-hydroxy-1,2-dihydro-3H-benzo[e]indol-3-yl)-4-oxobutoxy)-2-methoxy-7,8,9,10-tetrahydrobenzo[e]-pyrido[1,2-a][1,4]diazepin-12(6aH)-one], for which the IC50 in the experiment with PC3 (prostate) cell line was 1.43 nM; with SW48 cell line (gastric) it was 0.28 nM; in experiment [2] (read-out: Cytotoxicity FaDu (nM, 72 hour)) it was 1.17 nM; in experiment [3], 0.42 nM. In addition, the “cleavage of HexARev DNA fragment” value in experiment [1] was “cleave DNA”. In addition, in the experiment on TyrT DNA fragment (cleavage at A sites), the “number of preferred sites observed in the TyrT DNA fragment” value is listed as “three”. Moreover, the “cleavage of TyrT DNA fragment” value with TyrT DNA fragment (overnight incubation, 100° C. for 3 min, 8% denaturing gel (FIG. 11)) is on record as “distinct cleavage patterns”.
